Columns and labels:
[1] = organism: Rattus norvegicus; experiment: Inhibitory activity against neutrophil degranulation by measuring the content of beta-glucuronidase in the supernatant; type: functional
[2] = organism: Rattus norvegicus; experiment: % inhibition against mast cell degranulation by measuring the content of beta-glucuronidase in the supernatant; type: functional; set-up: concentration or dose not given beside the values
[3] = organism: Rattus norvegicus; experiment: % inhibition against neutrophil degranulation by measuring the content of lysozyme in the supernatant; type: functional; set-up: concentration or dose not given beside the values
[4] = organism: Rattus norvegicus; experiment: Inhibitory activity against neutrophil degranulation by measuring the content of lysozyme in the supernatant; type: functional
[5] = organism: Rattus norvegicus; experiment: % inhibition against neutrophil degranulation by measuring the content of beta-glucuronidase in the supernatant; type: functional; set-up: concentration or dose not given beside the values
[6] = organism: Rattus norvegicus; experiment: Inhibitory activity against mast cell degranulation by measuring the content of histamine in the supernatant; type: functional
[7] = organism: Rattus norvegicus; experiment: Inhibitory activity against mast cell degranulation by measuring the content of beta-glucuronidase in the supernatant; type: functional
[8] = system: RAW264.7; experiment: 50% inhibition against TNF-alpha release in RAW 264.7 cells in the supernatant; type: functional, cell-based; details: Mus musculus
[9] = organism: Rattus norvegicus; experiment: % inhibition against mast cell degranulation by measuring the content of histamine in the supernatant; type: functional; set-up: concentration or dose not given beside the values
[10] = system: N9; experiment: 50% inhibition against TNF-alpha release in N9 cells in the supernatant; type: functional, cell-based; details: Mus musculus
[11] = system: N9; experiment: % inhibition against TNF-alpha release in N9 cells in the supernatant; type: functional, Mus musculus; set-up: concentration or dose not given beside the values
[12] = system: RAW264.7; experiment: (§1) Inhibitory activity against TNF-alpha release in RAW 264.7 cells in the supernatant; type: functional, Mus musculus
[13] = system: N9; experiment: (§2) Inhibitory activity against TNF-alpha release in N9 cells in the supernatant; type: functional, Mus musculus
[14] = organism: Rattus norvegicus; experiment: 50% inhibition against mast cell degranulation by measuring the content of beta-glucuronidase in the supernatant; type: functional
[15] = system: RAW264.7; experiment: as §1; type: functional, cell-based; details: Mus musculus
[16] = system: RAW264.7; experiment: % inhibition against TNF-alpha release in RAW 264.7 cells in the supernatant; type: functional, Mus musculus; set-up: concentration or dose not given beside the values
[17] = system: N9; experiment: as §2; type: functional, cell-based, Mus musculus
[18] = organism: Rattus norvegicus; experiment: % inhibition against mast cell degranulation by measuring the content of beta-glucuronidase in the supernatant; details: concentration not given here

| Structure (SMILES) | IC50 [1] [µM] | IC50 [4] [µM] | IC50 [6] [µM] | IC50 [7] [µM] | IC50 [8] [µM] | IC50 [10] [µM] | IC50 [14] [µM] | IC50 [15] [µM] | IC50 [17] [µM] | inhibition [18] [%] | Inhibition [2] [%] | Inhibition [3] [%] | Inhibition [5] [%] | Inhibition [9] [%] | Inhibition [11] [%] | Inhibition [12] [%] | Inhibition [13] [%] | Inhibition [16] [%] |
| --- | --- | --- | --- | --- | --- | --- | --- | --- | --- | --- | --- | --- | --- | --- | --- | --- | --- | --- |
| CC(=O)COc1ccc(Nc2c3ccccc3nc3ccccc23)cc1 | > 30 | > 30 | > 30 | > 30 | 8.2 | > 1 | – | – | – | – | 1.3 | 21.6 | 35.8 | 19.2 | 6.6 | – | – | – |
| CC(=O)c1ccc(Nc2c3ccccc3nc3ccccc23)cc1 | > 30 | 23.7 | > 30 | > 30 | > 10 | 0.8 | – | – | – | – | 34.7 | – | 26.7 | 15.7 | – | – | – | 47.2 |
| COc1ccc2nc3cc(Cl)ccc3c(Oc3ccc(C(C)=O)cc3)c2c1 | > 30 | > 30 | > 30 | > 30 | – | – | – | > 30 | > 10 | – | 26.4 | -12.8 | 10.4 | 7.2 | 45.9 | – | – | 33.1 |
| COc1cccc2c(Oc3ccc(C(C)=O)cc3)c3ccccc3nc12 | > 30 | 21.3 | 16 | – | – | – | 19.5 | > 30 | > 10 | – | – | – | 35.2 | – | 19.7 | – | – | 34.3 |
| CCN(CC)CCCC(C)Nc1c2ccc(Cl)cc2nc2ccc(OC)cc12 (stereo not drawn) [QUINACRINE] | – | – | 31.2 | 28.8 | – | – | – | – | – | – | – | – | – | – | – | – | – | – |
| C/C(=N\O)c1ccc(Nc2c3ccccc3nc3ccccc23)cc1 | 4.4 | 8.2 | > 30 | > 30 | > 10 | > 3 | – | – | – | – | 29.5 | – | – | 23.3 | 40.1 | – | – | 44.9 |
| CO/N=C(\C)c1ccc(Nc2c3ccccc3nc3ccccc23)cc1 | > 30 | > 30 | 20.8 | – | > 30 | > 3 | 21 | – | – | – | – | 15.4 | 46.9 | – | 39.3 | – | – | 7.2 |
| CC(=O)c1ccc(Oc2c3c(nc4ccccc24)CCCC3)cc1 | > 30 | > 30 | > 30 | > 30 | – | – | – | > 30 | > 3 | – | 13.3 | 32.4 | 42.1 | 5.7 | -3.5 | – | – | 48.9 |
| CN1CCN(CCCN2c3ccccc3Sc3ccc(C(F)(F)F)cc32)CC1 [TRIFLUOPERAZINE] | – | – | 10.1 | 12.8 | – | – | – | – | – | – | – | – | – | – | – | – | – | – |
| C[C@@H]1C[C@H]2[C@@H]3CCC4=CC(=O)C=C[C@]4(C)[C@@]3(F)[C@@H](O)C[C@]2(C)[C@@]1(O)C(=O)CO [DEXAMETHASONE] | – | – | – | – | – | – | – | 0.42 | 0.074 | – | – | – | – | – | – | – | – | – |

The next lines start with results.

| IC50 [1] [µM] | IC50 [4] [µM] | IC50 [6] [µM] | IC50 [7] [µM] | IC50 [8] [µM] | IC50 [10] [µM] | IC50 [14] [µM] | IC50 [15] [µM] | IC50 [17] [µM] | inhibition [18] [%] | Structure (SMILES) | Inhibition [2] [%] | Inhibition [3] [%] | Inhibition [5] [%] | Inhibition [9] [%] | Inhibition [11] [%] | Inhibition [12] [%] | Inhibition [13] [%] | Inhibition [16] [%] |
| --- | --- | --- | --- | --- | --- | --- | --- | --- | --- | --- | --- | --- | --- | --- | --- | --- | --- | --- |
| > 30 | > 30 | 21.5 | – | – | > 3 | 20.7 | > 30 | – | – | O=Cc1ccc(Oc2c3ccccc3nc3ccccc23)cc1 | – | 44.8 | 49.9 | – | – | 17.2 | 19.9 | – |
| > 30 | > 30 | > 30 | > 30 | – | – | – | > 30 | 8.7 | – | CC(=O)/C=C/c1ccc(Oc2c3ccccc3nc3ccccc23)cc1 | 7.7 | 10.3 | 32.4 | -10.5 | – | – | – | -15.7 |
| > 30 | 18.7 | > 30 | > 30 | – | – | – | > 30 | > 3 | – | CC(=O)c1ccc(Oc2c3ccccc3nc3ccccc23)cc1 | 44.6 | – | 42 | 43.8 | 23.9 | – | – | 45.6 |
| > 30 | > 30 | > 30 | > 30 | – | – | – | > 30 | > 30 | – | CC(=O)c1ccc(Oc2c3ccccc3nc3ccc(Cl)cc23)cc1 | 29.4 | -16.4 | 14.8 | 14.4 | 12.3 | – | – | 4.6 |
| 12.9 | 18.3 | > 30 | > 30 | – | – | – | 19.3 | > 3 | 25 | COc1ccc2nc3ccccc3c(Oc3ccc(C(C)=O)cc3)c2c1 | – | – | – | 9.4 | 36.1 | – | – | – |

Reference: ChEMBL document CHEMBL1135625, “Synthesis and antiinflammatory evaluation of 9-anilinoacridine and 9-phenoxyacridine derivatives” (J Med Chem, 2002)
